One test concerns the target T1, Acetylcholinesterase (Rattus norvegicus, UniProt P37136).
T1 sequence (P37136 whole entry): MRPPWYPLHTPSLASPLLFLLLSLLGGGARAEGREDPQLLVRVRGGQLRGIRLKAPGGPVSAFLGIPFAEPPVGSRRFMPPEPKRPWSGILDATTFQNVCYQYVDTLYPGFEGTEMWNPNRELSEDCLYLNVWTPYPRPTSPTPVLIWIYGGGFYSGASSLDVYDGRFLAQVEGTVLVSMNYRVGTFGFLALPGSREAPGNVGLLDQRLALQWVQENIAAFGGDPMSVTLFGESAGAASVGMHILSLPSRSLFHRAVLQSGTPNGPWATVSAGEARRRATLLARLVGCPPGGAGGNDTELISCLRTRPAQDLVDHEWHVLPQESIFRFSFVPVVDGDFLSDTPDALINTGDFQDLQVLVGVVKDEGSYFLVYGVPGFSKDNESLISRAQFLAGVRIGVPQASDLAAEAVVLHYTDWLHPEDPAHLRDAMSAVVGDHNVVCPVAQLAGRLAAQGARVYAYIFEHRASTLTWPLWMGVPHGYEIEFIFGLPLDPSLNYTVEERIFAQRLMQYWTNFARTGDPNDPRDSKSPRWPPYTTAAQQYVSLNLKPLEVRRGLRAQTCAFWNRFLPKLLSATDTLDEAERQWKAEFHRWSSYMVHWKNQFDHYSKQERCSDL

Test [1] relates to Rattus norvegicus. Kind of test: Number of circlings observed for 30 min at 3 mg/kg orally administered dose in rats. It is filed as functional. As to conditions: route oral.
Test [2] concerns Rattus norvegicus. Put plainly: Peripheral cholinergic effects in male wistar rats when administered orally at a dose of 10 mg/Kg. It is filed as functional, organism-based.
Test [3] relates to Rattus norvegicus. Put plainly: Peripheral cholinergic effects in male wistar rats when administered orally at a dose of 3 mg/Kg. It is filed as functional, organism-based.
The test system of test [4] is Rattus norvegicus. Put plainly: Effect of compound on peripheral cholinergic effects in male wistar rats when administered orally at a dose of 30 mg/Kg; fasciculation, diarrhea. It is filed as functional, organism-based.
Test [5] relates to Rattus norvegicus. Kind of test: Effect of compound on peripheral cholinergic effects in male wistar rats when administered orally at a dose of 30 mg/Kg; fasciculation, lacrimation, salivation. It is filed as functional, organism-based.
The species entered for test [6] is Rattus norvegicus. Kind of test: Inhibition of circling behavior, percentage of control was reported; (p<0.05). On the set-up: scale not given: the % may be the effect or the level left. It is filed as functional.
Test [7] has as its system Rattus norvegicus. Kind of test: Effect of compound on peripheral cholinergic effects in male wistar rats when administered orally at a dose of 10 mg/Kg; fasciculation, lacrimation. It is filed as functional, organism-based.
For test [8], the species on record is Rattus norvegicus. As to conditions: dose 10 mg/kg; route oral.
Description: Number of circlings observed for 30 min at 10 mg/kg orally administered dose in rats
The subject of test [9] is Rattus norvegicus. Kind of test: Effect of compound on peripheral cholinergic effects in male wistar rats when administered orally at a dose of 30 mg/Kg; fasciculation, lacrimation. It is filed as functional, organism-based.
Test [10] has as its system Rattus norvegicus. Kind of test: Effect of compound on peripheral cholinergic effects in male wistar rats when administered orally at a dose of 3 mg/Kg; fasciculation. It is filed as functional, organism-based.
For test [11], the system named is Rattus norvegicus. Put plainly: Number of circlings observed for 30 min at 1 mg/kg orally administered dose in rats. It is filed as functional. The note with it: route oral.
Test [12] has as its system Rattus norvegicus. Put plainly: Effect of compound on peripheral cholinergic effects in male wistar rats when administered orally at a dose of 1 mg/Kg; No significant change. It is filed as functional, organism-based.
The subject of test [13] is Rattus norvegicus. Put plainly: Effect of compound on peripheral cholinergic effects in male wistar rats when administered orally at a dose of 3 mg/Kg; salivation. It is filed as functional, organism-based.
For test [14], the system named is Rattus norvegicus. Kind of test: Effect of compound on peripheral cholinergic effects in male wistar rats when administered orally at a dose of 30 mg/Kg; fasciculation, salivation. It is filed as functional, organism-based.
Test [15] concerns Rattus norvegicus. Kind of test: Effect of compound on peripheral cholinergic effects in male wistar rats when administered orally at a dose of 10 mg/Kg; fasciculation, salivation. It is filed as functional, organism-based.

We go through 36 compounds from ChEMBL document CHEMBL1127586, “Central cholinergic agents. 6. Synthesis and evaluation of 3-[1-(phenylmethyl)-4-piperidinyl]-1-(2,3,4,5-tetrahydro-1H-1-benzazepi n-8-yl)-1-propanones and their analogs as central selective acetylcholinesterase inhibitors” (J Med Chem, 1994).

Description for Acetylcholinesterase: Inhibition of acetylcholinesterase (AChE)

With `O=C(CCC1CCN(Cc2ccc(F)cc2)CC1)c1ccc2c(c1)NCCCC2`, the IC50 against Acetylcholinesterase was determined as 0.393 µM.

`CN1CCCCc2ccc(C(=O)CCC3CCN(Cc4ccccc4)CC3)cc21` yielded a No. of circlings in the test on Rattus norvegicus [1] of 100.3. In addition, the Activity entry in the test with Rattus norvegicus [2] is “Fasciculation”; in the test on Rattus norvegicus [3], “No activity”.

For the compound `CCCCN1CCc2cc(C(=O)CCC3CCN(Cc4ccccc4)CC3)ccc21`, in the test on Rattus norvegicus [1], the No. of circlings worked out at 86.4. Further, the Activity entry was “Fasciculation” with Rattus norvegicus [2]; “Fasciculation, Diarrhea” in the test with Rattus norvegicus [4]; “No activity” in the test on Rattus norvegicus [3].

As for `CN1CCc2cc(C(=O)CCC3CCN(Cc4ccccc4)CC3)ccc21`, the Activity entry in the test on Rattus norvegicus [5] was “Fasciculation, Lacrimation, Salivation”; in the test on Rattus norvegicus [7], “Fasciculation, Lacrimation”; in the test on Rattus norvegicus [3], “No activity”. Further, the No. of circlings in the test with Rattus norvegicus [1] is given as 68.7; in the test filed under Rattus norvegicus [8], 51.9. The compound further came in with a Control in the test filed under Rattus norvegicus [6] of 56.4%.

In the case of `O=C(CCC1CCN(Cc2cccc(Cl)c2)CC1)c1ccc2c(c1)CCN2`, on Acetylcholinesterase, the IC50 was determined as 0.059 µM. In addition, the No. of circlings in the test filed under Rattus norvegicus [8] is reported as 94.9.

With `COc1ccccc1CN1CCC(CCC(=O)c2ccc3c(c2)CCN3)CC1`, on Acetylcholinesterase, the IC50 worked out at 0.812 µM.

For `O=C(CCC1CCN(Cc2cccc(F)c2)CC1)c1ccc2c(c1)NCCCC2`, the No. of circlings with Rattus norvegicus [1] was found to be 98.4. The Activity entry in the test with Rattus norvegicus [2] was “Fasciculation”; in the test with Rattus norvegicus [9], “Fasciculation, Lacrimation”; in the test with Rattus norvegicus [3], “No activity”.

In the case of `CN1CCCc2cc(C(=O)CCC3CCN(Cc4cccc(Cl)c4)CC3)ccc21`, the Activity result in the test on Rattus norvegicus [10] was “Fasciculation”; with Rattus norvegicus [5], “Fasciculation, Lacrimation, Salivation”; with Rattus norvegicus [7] it was “Fasciculation, Lacrimation”; with Rattus norvegicus [12], “No activity”. Also, the No. of circlings with Rattus norvegicus [1] amounted to 54.5; in the test on Rattus norvegicus [11], 76.5. Half-maximal inhibition against Acetylcholinesterase (IC50) was put at 0.024 µM. Further, in the test filed under Rattus norvegicus [6], the Control worked out at 58%.

In the test on Rattus norvegicus [11], `O=C(CCC1CCN(Cc2ccccc2)CC1)c1ccc2c(c1)NCCCCC2` came in with a No. of circlings of 60.7. Further, the Activity result is “Fasciculation, Lacrimation” in the test with Rattus norvegicus [9]; “Fasciculation, Lacrimation” with Rattus norvegicus [7]; “No activity” in the test with Rattus norvegicus [12]; “Salivation” in the test with Rattus norvegicus [13].

In turn, `O=C(CCC1CCN(Cc2cccc(Cl)c2)CC1)c1ccc2c(c1)CCCN2Cc1ccccc1` yielded an IC50 against Acetylcholinesterase of 0.164 µM. The compound also gave a No. of circlings in the test filed under Rattus norvegicus [8] of 88.

`COc1cccc(CN2CCC(CCC(=O)c3ccc4c(c3)CCN4)CC2)c1` yielded an IC50 against Acetylcholinesterase of 2.68 µM.

On to `O=C(CCC1CCN(Cc2ccccc2)CC1)c1ccc2c(c1)N(Cc1ccccc1)CCC2`, for which the IC50 against Acetylcholinesterase was 1.49 µM.

`O=C(CCC1CCN(Cc2ccccc2)CC1)c1ccc2c(c1)NCCC2` yielded a No. of circlings in the test on Rattus norvegicus [1] of 60.5. For the same compound, the results for the Activity entry in the test with Rattus norvegicus [2] and in the test on Rattus norvegicus [3] were “Fasciculation” and “No activity”, respectively.

With `O=C(CCC1CCN(Cc2ccccc2)CC1)c1ccc2c(c1)CCN2Cc1ccccc1`, the No. of circlings with Rattus norvegicus [1] was found to be 66.8. In addition, the Activity entry in the test with Rattus norvegicus [2] was “Fasciculation”; with Rattus norvegicus [9], “Fasciculation, Lacrimation”; in the test with Rattus norvegicus [3], “No activity”.

For the compound `O=C(CCC1CCN(Cc2ccccc2)CC1)c1ccc2c(c1)CCN2`, in the test on Rattus norvegicus [1], the No. of circlings is on record as 52.4. In addition, the Activity result in the test on Rattus norvegicus [9] was “Fasciculation, Lacrimation”; in the test with Rattus norvegicus [7], “Fasciculation, Lacrimation”; in the test with Rattus norvegicus [3], “No activity”.

The compound `O=C(CCC1CCN(Cc2cccc(F)c2)CC1)c1ccc2c(c1)CCN2` had a No. of circlings in the test on Rattus norvegicus [1] of 84.3. In addition, the values for the Activity entry in the test on Rattus norvegicus [2] and in the test with Rattus norvegicus [3] were “Fasciculation” and “No activity”, respectively.

The compound `O=C(CCC1CCN(Cc2ccccc2)CC1)c1ccc2c(c1)N(Cc1ccccc1)CCCC2` gave an IC50 against Acetylcholinesterase of 3.14 µM.

As to `Cc1cccc(CN2CCC(CCC(=O)c3ccc4c(c3)CCN4)CC2)c1`, the No. of circlings with Rattus norvegicus [1] is recorded as 104. The Activity result in the test with Rattus norvegicus [2] is “Fasciculation”; with Rattus norvegicus [3], “No activity”.

With `O=C(CCC1CCN(Cc2cccc([N+](=O)[O-])c2)CC1)c1ccc2c(c1)CCN2`, the No. of circlings in the test filed under Rattus norvegicus [8] came to 91.1.

The compound `O=C(CCC1CCN(Cc2ccc(Cl)cc2)CC1)c1ccc2c(c1)CCN2` showed an IC50 at Acetylcholinesterase of 6.36 µM.

Take `CCN1CCCCc2ccc(C(=O)CCC3CCN(Cc4ccccc4)CC3)cc21`: the IC50 on Acetylcholinesterase was 0.376 µM.

The compound `COc1ccccc1CN1CCC(CCC(=O)c2ccc3c(c2)NCCCC3)CC1` came in with an IC50 at Acetylcholinesterase of 2.62 µM.

On Acetylcholinesterase, `O=C(CCC1CCN(Cc2ccccc2)CC1)c1ccc2c(c1)N(Cc1ccccc1)CC2` displayed an IC50 of 0.853 µM.

In turn, `O=C(CCC1CCN(Cc2ccc(F)cc2)CC1)c1ccc2c(c1)CCN2` came in with a No. of circlings in the test with Rattus norvegicus [1] of 107.4. The compound also came in with an IC50 against Acetylcholinesterase of 0.089 µM. In addition, the Activity entry in the test with Rattus norvegicus [9] was “Fasciculation, Lacrimation”; in the test with Rattus norvegicus [7], “Fasciculation, Lacrimation”; in the test with Rattus norvegicus [3] it was “No activity”.

In the case of `CCCN1CCc2cc(C(=O)CCC3CCN(Cc4ccccc4)CC3)ccc21`, the No. of circlings in the test filed under Rattus norvegicus [8] is reported as 81.

With `COc1cccc(CN2CCC(CCC(=O)c3ccc4c(c3)NCCCC4)CC2)c1`, the IC50 against Acetylcholinesterase is 0.847 µM.

At Acetylcholinesterase, `O=C(CCC1CCN(Cc2cccc(Cl)c2)CC1)c1ccc2c(c1)NCCCC2` showed an IC50 of 0.333 µM.

Take `O=C(CCC1CCN(Cc2ccccc2)CC1)c1ccc2c(c1)CCCCN2`: the Activity entry was “Fasciculation, Salivation” in the test on Rattus norvegicus [14]; “Fasciculation” in the test with Rattus norvegicus [2]; “No activity” in the test on Rattus norvegicus [3]. In addition, in the test with Rattus norvegicus [1], the No. of circlings is reported as 94.7.

`CCCCCN1CCc2cc(C(=O)CCC3CCN(Cc4ccccc4)CC3)ccc21`: the No. of circlings with Rattus norvegicus [1] is 79. Besides, the Activity result in the test on Rattus norvegicus [3] is “No activity”; with Rattus norvegicus [15] it was “Fasciculation, Salivation”.

`O=C(CCC1CCN(Cc2ccccc2Cl)CC1)c1ccc2c(c1)CCN2` came in with an IC50 on Acetylcholinesterase of 0.076 µM. This compound also had a No. of circlings in the test listed under Rattus norvegicus [8] of 67.5.

The compound `CCCN1CCCCc2ccc(C(=O)CCC3CCN(Cc4ccccc4)CC3)cc21` showed an IC50 against Acetylcholinesterase of 1.33 µM.

Take `O=C(CCC1CCN(Cc2cccc(Cl)c2)CC1)c1ccc2c(c1)CCCN2`: the Activity entry with Rattus norvegicus [10] was “Fasciculation”; with Rattus norvegicus [2], “Fasciculation”; with Rattus norvegicus [9], “Fasciculation, Lacrimation”; in the test with Rattus norvegicus [12], “No activity”. Moreover, the No. of circlings with Rattus norvegicus [1] stood at 77.4; in the test on Rattus norvegicus [11] it was 70.1. The IC50 on Acetylcholinesterase was 0.054 µM.

In turn, `O=C(CCC1CCN(Cc2cccc([N+](=O)[O-])c2)CC1)c1ccc2c(c1)NCCCC2` showed an IC50 at Acetylcholinesterase of 0.39 µM.

Take `O=C(CCC1CCN(Cc2ccccc2)CC1)c1ccc2c(c1)NCC2`: the No. of circlings with Rattus norvegicus [11] came out at 107.9.

For `CCN1CCc2cc(C(=O)CCC3CCN(Cc4ccccc4)CC3)ccc21`, the Activity entry in the test with Rattus norvegicus [14] was “Fasciculation, Salivation”; in the test on Rattus norvegicus [2], “Fasciculation”; with Rattus norvegicus [3] it was “No activity”. In addition, the No. of circlings in the test on Rattus norvegicus [1] turned out to be 89.7.

As for `CN1CCCc2ccc(C(=O)CCC3CCN(Cc4ccccc4)CC3)cc21`, the No. of circlings in the test with Rattus norvegicus [1] was determined as 105.6. The figures for the Activity result in the test with Rattus norvegicus [2], with Rattus norvegicus [9] and in the test with Rattus norvegicus [3] were “Fasciculation”, “Fasciculation” and “No activity”, respectively.

For orientation: IC50 means the point on the concentration scale where inhibition reaches its midpoint.
